Test results reported in PMC6693646 (Neuropharmacology, 2019).
Bridge positions count the residues as written; N and C are the ends. Peptide text beside a SMILES is read from it.

Experiments:
rα6/α3β4 nAChR [1] = molecular target: T1, rα6/α3β4 nAChR (Rattus norvegicus, UniProt P04757+P12392+P43143); experiment: cell-based
rα6β4 nAChR = rα6β4 nAChR (Rattus norvegicus, UniProt P12392+P43143); experiment: cell-based
hα4β2 nAChR = hα4β2 nAChR (Homo sapiens, UniProt P17787+P43681); experiment: cell-based
rα6/α3β2β3 nAChR [2] = molecular target: T2, rα6/α3β2β3 nAChR (Rattus norvegicus, UniProt P04757+P12390+P43143); experiment: cell-based
rα6/α3β4 nAChR [3] = molecular target: T1, rα6/α3β4 nAChR; type: cell-based
rα3β4 nAChR = rα3β4 nAChR (Rattus norvegicus, UniProt P04757+P12392); experiment: cell-based
rα9α10 nAChR = rα9α10 nAChR (Rattus norvegicus, UniProt P43144+Q9JLB5); experiment: cell-based
rα7 nAChR = rα7 nAChR (Rattus norvegicus, UniProt Q05941); experiment: cell-based
rα6/α3β2β3 nAChR [4] = molecular target: T2, rα6/α3β2β3 nAChR; type: cell-based
rα4β2 nAChR = rα4β2 nAChR (Rattus norvegicus, UniProt P09483+P12390); experiment: cell-based; type: cell-based
hα3β4 nAChR = hα3β4 nAChR (Homo sapiens, UniProt P30926+P32297); experiment: cell-based
rα4β4 nAChR = rα4β4 nAChR (Rattus norvegicus, UniProt P09483+P12392); experiment: cell-based
rα3β2 nAChR = rα3β2 nAChR (Rattus norvegicus, UniProt P04757+P12390); experiment: cell-based
hα6/α3β2β3 nAChR = hα6/α3β2β3 nAChR (Homo sapiens, UniProt P17787+P32297+Q05901+Q15825); experiment: cell-based
rα2β2 nAChR = rα2β2 nAChR (Rattus norvegicus, UniProt P12389+P12390); experiment: cell-based
rα2β4 nAChR = rα2β4 nAChR (Rattus norvegicus, UniProt P12389+P12392); experiment: cell-based
hα6/α3β4 nAChR = hα6/α3β4 nAChR (Homo sapiens, UniProt P30926+P32297+Q15825); experiment: cell-based
[5] = read-out: inhibition of ACh-evoked current

T2 sequence (P43143 31-237 limits assumed): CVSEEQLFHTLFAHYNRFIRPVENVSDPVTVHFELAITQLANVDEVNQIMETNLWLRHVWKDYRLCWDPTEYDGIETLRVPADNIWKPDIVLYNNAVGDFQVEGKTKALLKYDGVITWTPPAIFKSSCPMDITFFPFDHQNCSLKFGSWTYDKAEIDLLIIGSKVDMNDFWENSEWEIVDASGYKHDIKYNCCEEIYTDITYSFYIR
T2 sequence (P04757 233-499 limits assumed): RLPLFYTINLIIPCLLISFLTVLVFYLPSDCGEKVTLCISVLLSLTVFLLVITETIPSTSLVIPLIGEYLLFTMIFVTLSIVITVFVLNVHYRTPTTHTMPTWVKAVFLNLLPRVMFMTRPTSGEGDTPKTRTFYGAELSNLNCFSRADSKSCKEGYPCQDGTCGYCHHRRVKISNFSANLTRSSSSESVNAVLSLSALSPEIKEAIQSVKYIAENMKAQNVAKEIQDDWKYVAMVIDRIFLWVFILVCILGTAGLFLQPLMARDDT
T2 sequence (P12390 25-500 limits assumed): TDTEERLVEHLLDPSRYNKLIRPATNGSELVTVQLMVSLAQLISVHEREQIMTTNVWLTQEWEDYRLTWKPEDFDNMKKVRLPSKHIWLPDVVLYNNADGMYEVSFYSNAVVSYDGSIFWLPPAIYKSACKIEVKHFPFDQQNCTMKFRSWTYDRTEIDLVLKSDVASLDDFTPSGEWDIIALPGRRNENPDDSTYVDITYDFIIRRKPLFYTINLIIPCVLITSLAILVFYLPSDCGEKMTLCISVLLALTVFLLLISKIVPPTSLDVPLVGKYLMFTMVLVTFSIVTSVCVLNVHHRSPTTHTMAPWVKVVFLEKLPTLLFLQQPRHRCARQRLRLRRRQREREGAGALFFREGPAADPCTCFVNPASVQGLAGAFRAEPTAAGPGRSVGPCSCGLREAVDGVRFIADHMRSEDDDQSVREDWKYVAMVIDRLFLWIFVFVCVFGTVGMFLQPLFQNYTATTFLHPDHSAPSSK
T1 sequence (P43143 31-237 limits assumed): as the sequence (P43143 31-237 limits assumed) above
T1 sequence (P04757 233-499 limits assumed): as the sequence (P04757 233-499 limits assumed) above
T1 sequence (P12392 22-495 limits assumed): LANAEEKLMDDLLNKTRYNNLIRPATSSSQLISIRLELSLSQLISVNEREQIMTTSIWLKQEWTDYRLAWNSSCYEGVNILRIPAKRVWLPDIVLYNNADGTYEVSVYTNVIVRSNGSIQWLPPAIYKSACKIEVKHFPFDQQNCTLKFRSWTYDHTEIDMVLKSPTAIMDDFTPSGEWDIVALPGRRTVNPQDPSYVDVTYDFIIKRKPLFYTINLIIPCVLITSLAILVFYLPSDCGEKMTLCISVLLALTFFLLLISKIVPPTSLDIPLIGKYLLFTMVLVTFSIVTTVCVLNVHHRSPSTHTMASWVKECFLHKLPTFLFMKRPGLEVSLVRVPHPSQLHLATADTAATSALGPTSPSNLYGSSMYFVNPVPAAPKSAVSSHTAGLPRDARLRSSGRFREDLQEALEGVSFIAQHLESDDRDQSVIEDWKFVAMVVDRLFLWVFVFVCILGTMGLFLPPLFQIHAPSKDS
Sequence of rα3β4 nAChR (P04757 26-499 limits assumed): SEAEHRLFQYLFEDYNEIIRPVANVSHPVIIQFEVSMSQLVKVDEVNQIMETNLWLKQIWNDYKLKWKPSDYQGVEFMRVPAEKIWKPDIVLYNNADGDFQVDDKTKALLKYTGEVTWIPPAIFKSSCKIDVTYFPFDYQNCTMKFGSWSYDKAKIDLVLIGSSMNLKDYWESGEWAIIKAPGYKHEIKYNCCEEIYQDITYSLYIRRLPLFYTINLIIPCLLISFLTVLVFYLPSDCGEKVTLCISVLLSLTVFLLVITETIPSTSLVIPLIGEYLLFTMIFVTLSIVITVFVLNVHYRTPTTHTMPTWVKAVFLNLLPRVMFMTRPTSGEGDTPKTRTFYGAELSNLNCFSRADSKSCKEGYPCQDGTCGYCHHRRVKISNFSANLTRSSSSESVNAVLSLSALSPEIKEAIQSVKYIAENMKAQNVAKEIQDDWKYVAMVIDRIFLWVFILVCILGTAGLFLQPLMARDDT
Sequence of rα3β4 nAChR (P12392 22-495 limits assumed): as the sequence (P12392 22-495 limits assumed) above
Sequence of rα4β2 nAChR (P09483 31-630 limits assumed): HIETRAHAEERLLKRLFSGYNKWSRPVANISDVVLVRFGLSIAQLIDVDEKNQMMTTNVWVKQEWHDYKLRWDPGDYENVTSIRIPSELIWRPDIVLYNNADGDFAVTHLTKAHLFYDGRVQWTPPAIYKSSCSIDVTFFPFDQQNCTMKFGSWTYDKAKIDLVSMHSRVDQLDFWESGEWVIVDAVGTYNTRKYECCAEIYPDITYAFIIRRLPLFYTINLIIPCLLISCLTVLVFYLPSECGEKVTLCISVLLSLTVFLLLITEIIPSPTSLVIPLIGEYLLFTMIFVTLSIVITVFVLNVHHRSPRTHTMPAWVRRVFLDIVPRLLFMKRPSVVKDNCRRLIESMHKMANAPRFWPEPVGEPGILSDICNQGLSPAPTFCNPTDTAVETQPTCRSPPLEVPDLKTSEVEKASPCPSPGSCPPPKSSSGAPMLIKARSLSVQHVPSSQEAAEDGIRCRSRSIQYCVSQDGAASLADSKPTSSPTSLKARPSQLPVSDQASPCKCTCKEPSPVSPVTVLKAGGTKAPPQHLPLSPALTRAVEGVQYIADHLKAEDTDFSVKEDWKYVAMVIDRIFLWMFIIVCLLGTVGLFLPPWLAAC
Sequence of rα4β2 nAChR (P12390 25-500 limits assumed): as the sequence (P12390 25-500 limits assumed) above
Sequence of hα3β4 nAChR (P32297 32-505 limits assumed): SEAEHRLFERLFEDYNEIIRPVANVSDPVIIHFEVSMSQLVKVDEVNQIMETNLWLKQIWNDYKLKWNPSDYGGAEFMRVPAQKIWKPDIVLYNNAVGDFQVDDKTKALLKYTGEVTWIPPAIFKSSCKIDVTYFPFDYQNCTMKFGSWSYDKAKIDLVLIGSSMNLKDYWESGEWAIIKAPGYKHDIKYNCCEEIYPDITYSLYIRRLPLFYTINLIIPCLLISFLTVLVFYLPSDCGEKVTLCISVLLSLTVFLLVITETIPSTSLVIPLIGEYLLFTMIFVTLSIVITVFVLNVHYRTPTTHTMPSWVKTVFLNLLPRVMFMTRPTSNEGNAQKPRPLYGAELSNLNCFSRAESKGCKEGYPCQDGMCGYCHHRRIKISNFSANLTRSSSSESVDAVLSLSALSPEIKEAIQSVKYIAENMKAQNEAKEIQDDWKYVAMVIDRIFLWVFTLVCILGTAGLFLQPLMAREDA
Sequence of hα3β4 nAChR (P30926 22-498 limits assumed): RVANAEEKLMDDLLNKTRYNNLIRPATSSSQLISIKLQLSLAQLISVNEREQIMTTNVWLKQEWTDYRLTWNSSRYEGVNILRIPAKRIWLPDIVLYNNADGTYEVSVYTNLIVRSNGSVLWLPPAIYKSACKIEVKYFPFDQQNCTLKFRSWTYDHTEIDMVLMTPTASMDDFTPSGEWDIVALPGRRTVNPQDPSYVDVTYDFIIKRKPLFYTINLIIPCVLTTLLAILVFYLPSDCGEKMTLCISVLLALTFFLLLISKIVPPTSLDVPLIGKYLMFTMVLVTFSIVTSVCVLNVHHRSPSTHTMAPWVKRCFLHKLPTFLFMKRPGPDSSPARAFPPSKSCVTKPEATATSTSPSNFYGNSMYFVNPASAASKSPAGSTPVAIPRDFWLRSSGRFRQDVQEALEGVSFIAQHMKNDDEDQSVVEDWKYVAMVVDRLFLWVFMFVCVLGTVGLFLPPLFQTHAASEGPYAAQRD

SMILES: CC(C)[C@@H]1NC(=O)[C@@H]2CCCN2C(=O)[C@H](Cc2c[nH]cn2)NC(=O)[C@H](CO)NC(=O)[C@@H]2CSSC[C@@H](C(=O)NCC(N)=O)NC(=O)[C@H](CC(N)=O)NC(=O)[C@@H]3CCCN3C(=O)[C@H](CC(N)=O)NC(=O)[C@H](CCCCN)NC(=O)[C@H]([C@@H](C)O)NC(=O)[C@H](Cc3ccc(O)cc3)NC(=O)[C@H](CSSC[C@H](NC(=O)CNC(=O)CN)C(=O)N2)NC1=O [VnIB] (H-GGCCSHPVCYTKNPNCG-NH2; disulfide 3-9, 4-16)
- koff (rα6/α3β4 nAChR [1]): 0.00437 s⁻¹
- kon (rα6/α3β4 nAChR [1]): 420000 M⁻¹ s⁻¹
- IC50 (rα6β4 nAChR): 12 nM
- IC50 (hα4β2 nAChR): > 10 µM
- IC50 (rα6/α3β2β3 nAChR [2]): 4 µM
- inhibition at 1 µM (rα6/α3β2β3 nAChR [2]; [5]): 23%
- reduction of ACh-evoked currents (rα6/α3β4 nAChR [3]): ~ 85%
- IC50 (rα3β4 nAChR): 320 nM
- inhibition at 1 µM (rα3β4 nAChR; [5]): 80%
- IC50 (rα9α10 nAChR): > 10 µM
- IC50 (rα7 nAChR): > 10 µM
- reduction of ACh-evoked currents (rα6/α3β2β3 nAChR [4]): ~ 10%
- IC50 (rα4β2 nAChR): > 10 µM
- effect on ACh-evoked response (rα4β2 nAChR): no significant effect
- IC50 (hα3β4 nAChR): > 10 µM
- IC50 (rα4β4 nAChR): > 10 µM
- IC50 (rα3β2 nAChR): > 10 µM
- IC50 (hα6/α3β2β3 nAChR): > 10 µM
- IC50 (rα2β2 nAChR): > 10 µM
- IC50 (rα2β4 nAChR): > 10 µM
- IC50 (hα6/α3β4 nAChR): 5.3 nM
